Biological target: High affinity cGMP-specific 3',5'-cyclic phosphodiesterase 9A (Homo sapiens, UniProt O76083)
Experiment: Inhibition of recombinant human PDE9A1 by radiometric assay

Chain of High affinity cGMP-specific 3',5'-cyclic phosphodiesterase 9A (O76083 whole entry): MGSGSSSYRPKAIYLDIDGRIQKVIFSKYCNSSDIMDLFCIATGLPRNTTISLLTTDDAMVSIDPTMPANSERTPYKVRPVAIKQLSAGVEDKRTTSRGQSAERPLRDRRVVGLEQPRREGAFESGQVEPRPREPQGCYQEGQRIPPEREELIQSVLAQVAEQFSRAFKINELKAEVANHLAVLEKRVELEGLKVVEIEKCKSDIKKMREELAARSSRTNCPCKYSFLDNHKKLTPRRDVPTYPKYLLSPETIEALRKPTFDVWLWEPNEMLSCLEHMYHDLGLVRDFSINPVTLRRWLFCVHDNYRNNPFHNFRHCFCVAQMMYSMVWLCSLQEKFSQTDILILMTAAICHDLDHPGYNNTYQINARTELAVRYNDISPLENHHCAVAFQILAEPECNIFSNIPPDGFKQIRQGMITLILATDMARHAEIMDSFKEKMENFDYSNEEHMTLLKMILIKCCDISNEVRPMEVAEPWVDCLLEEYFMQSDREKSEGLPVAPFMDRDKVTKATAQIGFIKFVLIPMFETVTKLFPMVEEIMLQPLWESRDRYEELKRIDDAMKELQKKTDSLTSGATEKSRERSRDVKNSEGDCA

- IC50: 8.2 nM
Compound: C[C@@H]1CN(Cc2ncccn2)C[C@H]1c1cn2c(C3CCOCC3)ncc2c(=O)[nH]1 [US10513524, Compound (P3]
